One assay deals with T1, AURKA (Mus musculus, UniProt P97477).
T1 construct: endogenous in cells; host or cells: NMP53-/- murine hepatocellular carcinoma cells
T1 sequence (P97477 1-395): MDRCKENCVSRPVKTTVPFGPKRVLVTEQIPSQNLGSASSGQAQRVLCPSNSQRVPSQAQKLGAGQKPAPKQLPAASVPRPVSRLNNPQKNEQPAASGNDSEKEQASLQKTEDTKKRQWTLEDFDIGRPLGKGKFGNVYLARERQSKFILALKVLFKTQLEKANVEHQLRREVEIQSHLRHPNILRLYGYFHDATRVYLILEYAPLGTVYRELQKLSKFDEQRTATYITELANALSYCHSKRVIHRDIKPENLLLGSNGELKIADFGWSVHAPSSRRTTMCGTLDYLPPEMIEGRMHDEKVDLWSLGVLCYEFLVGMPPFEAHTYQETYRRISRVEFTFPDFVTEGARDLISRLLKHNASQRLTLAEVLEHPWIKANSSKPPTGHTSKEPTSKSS
The experiment in a line: Cellular Thermal Shift Assay (CETSA) in NMP53-/- cells. It is filed as cell-based, murine. Conditions: 43.7- 47.9 °C.

Assay [1] concerns BNL CL.2 (non-transformed murine embryonic liver cell line). Put plainly: XTT cell viability assay (growth curves / growth inhibition). As to conditions: BNL CL.2 cells; at the IC95 concentration of EXAMPLE 3 against NMP53-/- cells; 48h. It is filed as cell-based. As for the experimental part: (§1) In brief, cells were seeded in 6-well plates on day 1. On day 2, cells were treated with either EXAMPLE 3 (AURKA Ligand) or with DMSO (control). After 5 days, wells were washed and cells were fixed with 4% PFA and then stained with Crystal Violet solution. Plates were scanned and pictures were saved. (B) Crystal violet colony formation assay of NMP19-/- or NMP53 murine hepatocellular carcinoma cells. In brief, cells were seeded in 6-well plates on day 1. On day 2, cells were treated with MLN8237 (AURKA inhibitor) or with DMSO (control). After 5 days, wells were washed and cells were fixed with 4% PFA and then stained with Crystal Violet solution. Plates were scanned and pictures were saved. (C) AURKA kinase assay with the AURKA ligand EXAMPLE 3. The AURKA kinase assay was performed by Reaction Biology Corp. and it is based on radiometric ATP quantification. Compounds were received as 10 mM stock. […] Afterwards, an XTT cell viability assay was performed, based on the quantification of metabolic activity of alive cells. […] Finally, slides were mounted and analyzed in a fluorescent microscope. Bar graphs represent quantification of abnormal/normal spindles levels of (B) NMP53^-/- and (C) NMP19^-/- mitotic cells at time points after treatment with 15 nM of EXAMPLE 3. […] Subsequently, they were analyzed in a Flow Cytometry device for quantification of the amount of PI in each cell. […]
In general terms: Tetrazolium dyes change colour on reduction, which living cells bring about.

The subject of the next assay is TPX2. The experiment in a line: Cellular Thermal Shift Assay (CETSA) in NMP53-/- cells. The format is cell-based, murine. As to conditions: 43.7- 47.9 °C.
A further assay deals with NMP19-/-. The experiment in a line: XTT cell viability assay (growth curves / growth inhibition). It is filed as cell-based, murine. As to conditions: NMP19-/- cells; at the IC95 concentration of EXAMPLE 3 against NMP53-/- cells; 48h. As for the experimental part:
as §1

Each structure is given as a SMILES string.

One compound from EP4620957A1, “IMIDAZO[4,5-B]PYRIDIN-7-AMINE COMPOUNDS BINDING AURORA KINASE A AND USES THEREOF” (Eberhard Karls Universität Tübingen, priority 2024, dated 2025) can be followed below.

Regarding `Cn1cc(-c2ccc(CNc3ccnc4[nH]c(CCc5ccco5)nc34)cc2)cn1` [Example 3, 2-(2-(furan-2-yl)ethyl)-N-(4-(1-methyl-1H-pyrazol-4-yl)benzyl)-3H-imidazo[4,5-b]pyridin-7-amine], on AURKA, the “thermal stabilization of AURKA (SDS-Page of soluble fraction)” value is recorded as “stabilized”. For the same compound, the “growth inhibition in percentage” value (in assay [1]; in the assay on NMP19-/-) was “no significant growth inhibition” each time. The “thermal stabilization of TPX2 (SDS-Page of soluble fraction)” value in the assay on TPX2 is reported as “stabilized”.
